Among the test systems are 786-0; ACHN; CAKI-1; COLO 205; EKVX; HCC 2998; LOX IMVI; MCF7; MDA-MB-435; MOLT-4; OVCAR-4; OVCAR-5; OVCAR-8; RPMI-8226; SK-MEL-2; SK-MEL-5; SR; UACC-257; NCI/ADR-RES; UO-31.
Experiment in all cases: NCI tumour cell line growth inhibition, 48 h

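1) Cells in 96-well plates. 2) Compound, 48 h, 5 concentrations. 3) Linear interpolation between surrounding doses. 4) Unreached endpoint = highest concentration. At the GI50, growth is halved.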 Activity calls are given as the source filed them. Rule as the data show it: active = GI50 up to about 1.1 µM and inactive = higher.

Regarding `CCCCCCCCCCCCNC(=O)NCC(OCC)OCC`, the GI50 with 786-0, in the assay on ACHN, in the assay with CAKI-1, in the assay with COLO 205, with EKVX and with HCC 2998 was > 10 µM (inactive) throughout. Further, the GI50 in the assay on LOX IMVI, with MCF7, in the assay with MDA-MB-435, in the assay with MOLT-4, with OVCAR-4 and in the assay with OVCAR-5 was > 10 µM (inactive) throughout. Further, the GI50 in the assay on OVCAR-8, in the assay with RPMI-8226, in the assay on SK-MEL-2, in the assay on SK-MEL-5, with SR and in the assay on UACC-257 was > 10 µM (inactive) in each case.
With `O=C(N/N=C1/C(=O)c2c3ccccc3cc3cccc1c23)c1cccc(Cl)c1`, the GI50 is 56.6 µM (inactive) in the assay with 786-0; 33 µM (inactive) in the assay with ACHN; > 100 µM (inactive) in the assay on CAKI-1; > 100 µM (inactive) with COLO 205; > 100 µM (inactive) with HCC 2998; > 100 µM (inactive) in the assay with LOX IMVI. In addition, the GI50 in the assay on MDA-MB-435 is > 100 µM (inactive); with MOLT-4, 0.711 µM (active); in the assay on NCI/ADR-RES, > 100 µM (inactive); in the assay with OVCAR-4 it was > 100 µM (inactive); with OVCAR-5, > 100 µM (inactive); in the assay with OVCAR-8, > 100 µM (inactive). Besides, the GI50 in the assay on RPMI-8226, in the assay on SK-MEL-2, in the assay on SK-MEL-5, in the assay with SR and with UACC-257 was > 100 µM (inactive) each time.
With `COC(=O)C(=O)C(C(=O)C(=O)Nc1ccccc1C(C)=O)c1nc2ccc(C(=O)c3ccccc3)cc2nc1O` (stereo not given), the GI50 with 786-0 is > 100 µM (inactive); in the assay on ACHN, 73.8 µM (inactive); in the assay with CAKI-1, 25.9 µM (inactive); in the assay on EKVX, 92.5 µM (inactive); with HCC 2998, 78.3 µM (inactive); with LOX IMVI, > 100 µM (inactive). Also, the GI50 in the assay with MCF7 is 19.4 µM (inactive); with MOLT-4 it was 56.2 µM (inactive); in the assay with NCI/ADR-RES, 30.6 µM (inactive); with OVCAR-4, > 100 µM (inactive); in the assay on OVCAR-5, > 100 µM (inactive); in the assay on OVCAR-8, 39.6 µM (inactive). Moreover, the GI50 is 63.1 µM (inactive) in the assay on RPMI-8226; > 100 µM (inactive) in the assay on SK-MEL-2; 62.8 µM (inactive) in the assay with SK-MEL-5; 3.77 µM (inactive) in the assay with SR; > 100 µM (inactive) with UACC-257; 26.7 µM (inactive) with UO-31.
For the compound `NC(=O)c1cc2ccccc2c(/N=N/c2ccccc2)c1O`, the GI50 in the assay on 786-0 was 9.31 µM (inactive); in the assay with CAKI-1, 23.5 µM (inactive); with COLO 205, > 100 µM (inactive); with EKVX it was 39.4 µM (inactive); in the assay on LOX IMVI, > 100 µM (inactive); in the assay on MDA-MB-435, > 100 µM (inactive). Besides, the GI50 in the assay with MOLT-4 was 76.7 µM (inactive); with NCI/ADR-RES it was 76.2 µM (inactive); in the assay on OVCAR-4 it was 19.4 µM (inactive); in the assay with OVCAR-5, > 100 µM (inactive); in the assay with OVCAR-8, 29.9 µM (inactive); in the assay on RPMI-8226, 59.6 µM (inactive). Also, the GI50 in the assay on SK-MEL-2, with SK-MEL-5, in the assay on SR, in the assay on UACC-257 and in the assay on UO-31 was > 100 µM (inactive) each time.
